Results taken from patent EP0427860A1, “NEW IMIDAZOLE DERIVATIVES, PRODUCTION THEREOF, AND USES THEREOF AS MEDICINES” (Kyoto Pharmaceutical Industries, Ltd., priority 1989, dated 1990).

Key:
TXB2 = assay: Assay of TXB2 in serum after oral administration; assay type: in vivo; details: 10 mg/kg orally, male rats, blood taken 1 hour later, incubated at 37° C for 90 minutes, Control 192.5
Experimental: Experiment 3 (Assay of TXB2)
The test drug was orally administered to male rats, and 1 hour later, a blood sample was taken from ventral aorta via a polyethylene tube while anesthetized with ether. The blood taken was immediately incubated at 37° C for 90 minutes, and TXB2 was extracted from the serum separated, followed by assay using a [^3H]RIA Kit.

[1] = test system: platelet rich plasma (PRP) from rabbits; assay: Inhibitory activities on platelet aggregation (arachidonic acid-induced, transmittance); assay type: cell-based; details: test drug 10^-6 M, rabbit PRP, aggregation induced by arachidonic acid (0.1 mM); for inhibition at 1 µM: Oryctolagus cuniculus, Platelet, read-out: Experiment 1 10^-6 M inhibition (%)
Experimental: Experiment 1 (Inhibitory activities on platelet aggregation)
Platelet aggregation of platelet rich plasma (PRP) from rabbits was measured with the use of an NKK- hematracer (Niko Bioscience). That is, to PRP (200µ 1) was added a test drug or a solvent at 37°C while stirring at 1000 rpm, and an aggregation-inducing agent was added thereto 1 minute later, to measure the changes in transmittance caused by the platelet aggregation. Arachidonic acid (0.1 mM) was used as the aggregation-inducing agent.

[2] = test system: lipoperoxide production in rat brain; assay: Inhibitory activities on lipoperoxide production in rat brain (MDA yield, TBA method); assay type: biochemical; details: rat cerebrum suspension, 37° C for 30 minutes, lipoperoxide measured as MDA yield; read-out: Experiment 2 IC50 value
Experimental: Experiment 2 (Inhibitory activities on lipoperoxide production in rat brain)
To male rats weighing about 300 g was intraperitoneally administered 100 mg/kg of sodium pentobar- bital and the rats were exsanguinated to death while anesthetized, after which the cerebrum was extracted. The extracted cerebrum was washed with ice-cooled physiological saline, dried gently, and weighed. Thereto was added 5-fold amount by weight of a 50 mM phosphatesaline buffer (pH 7.4), which was then suspended by an ultradisperser under ice-cooling, followed by centrifugation at 1300 g and at 4 C for 10 minutes. The supernatant was 5-fold diluted with the above buffer, and used as a suspension for measurement.
The suspension to which the test drug had been added at 1/100 volume was incubated at 37° C for 30 minutes, and the amount of the resulting lipoperoxide was measured as an MDA yield. The assay of MDA was conducted by a modified method based on Smith et al., and the absorbance of the TBA reaction product at 532 nm was measured.

Compound	TXB2 (TXB2) [ng/mL]	inhibition at 1 µM [1] [%]	IC50 [2] [µM]	Experiment 1 10^-6 M inhibition (%) [1] [%]
CCCCCOc1ccc2c(c1)C(CCn1ccnc1)CN2CCC(=O)O (stereo not shown) [Example 21]	6.7	5.5	1.84	–
CCOC(=O)CCN1CC(CCn2ccnc2)c2cc(C(C)C)ccc21 (stereo not shown) [Example 14]	–	14.5	6	–
CCOC(=O)CCN1CC(CCn2ccnc2)c2ccccc21 (stereo not shown) [Example 1]	–	40.3	93	–
CC(C)c1ccc2c(c1)C(CCn1ccnc1)CN2CCC(=O)O (stereo not shown) [Example 15]	–	1.6	24.8	–
CCOC(=O)CCN1CC(CCn2ccnc2)c2cc(OC)ccc21 (stereo not shown) [Example 10]	–	54.5	18.7	–
CCCCCCCOc1ccc2c(c1)C(CCn1ccnc1)CN2CCC(=O)OCC (stereo not shown) [Example 22]	–	37	–	–
CCCCCCOc1ccc2c(c1)C(CCn1ccnc1)CN2CCC(=O)OCC (stereo not shown) [Example 8, Ethyl 5-hexyloxy-3-[2-(1 H-imidazol-1-yl)ethyl]-1-indolinepropionate]	–	20.8	2.6	–
CCCCCCOc1ccc2c(c1)C(CCn1ccnc1)CN2CCC(=O)O (stereo not shown) [Example 9, 5-Hexyloxy-3-[2-(1H-imidazol-1-yl)ethyl]-1-indolinepropionic acid]	–	28.3	–	–
O=C(O)CCCC/C=C(\c1ccccc1)c1cccnc1 [CV-4151, reference compound]	11.0	–	–	–
CCCOc1ccc2c(c1)C(CCn1ccnc1)CN2CCC(=O)O (stereo not shown) [Example 19]	–	3.6	19.4	–
O=C(O)CCN1CC(CCn2ccnc2)c2cc(C3CCCCC3)ccc21 (stereo not shown) [Example 17]	–	15.7	2.05	–
CCCCCCCCCCCCOc1ccc2c(c1)C(CCn1ccnc1)CN2CCC(=O)O (stereo not shown) [Example 29]	–	12.1	0.24	–
CCCc1ccc2c(c1)C(CCn1ccnc1)CN2CCC(=O)O (stereo not shown) [Example 13]	–	10.4	21.9	–
CCCc1ccc2c(c1)C(CCn1ccnc1)CN2CCC(=O)OCC (stereo not shown) [Example 12]	–	19.7	4.8	–
CCCCCCCOc1ccc2c(c1)C(CCn1ccnc1)CN2CCC(=O)O (stereo not shown) [Example 23]	–	11.5	0.25	–
CCOC(=O)CCN1CC(CCn2ccnc2)c2cc(C3CCCCC3)ccc21 (stereo not shown) [Example 16]	–	2.1	–	–
C=CCOc1ccc2c(c1)C(CCn1ccnc1)CN2CCC(=O)O (stereo not shown) [Example 31]	–	0.2	20.3	–
COc1ccc2c(c1)C(CCn1ccnc1)CN2CCC(=O)O (stereo not shown) [Example 11]	–	36	73	–
CCCCCCCCCOc1ccc2c(c1)C(CCn1ccnc1)CN2CCC(=O)O (stereo not shown) [Example 27]	4.8	27	0.26	–
C=CCOc1ccc2c(c1)C(CCn1ccnc1)CN2CCC(=O)OCC (stereo not shown) [Example 30]	–	28.4	–	–
CCCOc1ccc2c(c1)C(CCn1ccnc1)CN2CCC(=O)OCC (stereo not shown) [Example 18]	–	21.8	–	–
CCCCCOc1ccc2c(c1)C(CCn1ccnc1)CN2CCC(=O)OCC (stereo not shown) [Example 20]	5.1	45.2	2.05	–
O=C(O)CCN1CC(CCn2ccnc2)c2ccccc21 (stereo not shown) [Example 2, 3-[2-(1 H-Imidazol-1-yl)ethyl]-1-indolinepropionic acid]	–	8.7	–	–
CCCCCCCCCOc1ccc2c(c1)C(CCn1ccnc1)CN2CCC(=O)OCC (stereo not shown) [Example 26]	–	40.5	–	–
O=C(O)/C=C/c1ccc(Cn2ccnc2)cc1 [OKY-046, reference compound]	–	4	–	–
Ethyl 3-[2-(1 H-imidazol-1-yl)ethyl]-1-indolineacetate [Example 5]	–	–	25	20.3
